Test results taken from patent US12461078B2, “Compounds for use in system suitability testing of inert LC systems and columns” (priority 2020, dated 2025).

Key:
[1] = cited from earlier work
[2] = Hydrolytic and storage stability of nucleotide analog; format: physicochemical

SMILES | Log P [1] | resistance to hydrolysis / storage stability [2]
Nc1ncnc2c1ncn2[C@@H]1O[C@H](COP(=O)(O)CP(=O)(O)O)[C@@H](O)[C@H]1O [AMPcP, Adenosine 5′-(α, β-methylene)diphosphate] | −4.8 | resistant to hydrolysis and be stable for long-term storage and repeat use
Nc1ncnc2c1ncn2[C@@H]1O[C@H](COP(=O)(O)OP(=O)(O)OP(=O)(O)O)[C@@H](O)[C@H]1O [ATP, adenosine-5′-triphosphate] | −5.5 | –
